Laboratory results taken from patent US20080004276A1, “Method for treating non-hodgkin's lymphoma” (priority 2006, published 2008).

test system: Her2; test: IC50 range for inhibition of Her2 degradation (Table 8); assay type: cell-based; conditions: Homo sapiens
Description: Human high-Her2 breast carcinoma BT474 (HTB-20), SK-BR-3 (HTB-30) and MCF-7 breast carcinoma (HTB-22) from American Type Culture Collection, VA, USA were grown in Dulbecco's modified Eagle's medium with 4 mM L-glutamine and antibiotics (100 IU/ml penicillin and 100 ug/ml streptomycine; GibcoBRL). To obtain exponential cell growth, cells were trypsinized, counted and seeded at a cell density of 0.5×10^6 cells/ml regularly, every 3 days. All experiments were performed on day 1 after cell passage. […]
After treatment with a compound of the invention, cells were washed twice with 1×PBS/1% FBS, and then stained with anti-Her2-FITC (#340553, BD) for 30 min at 4° C. Cells were then washed three times in FACS buffer before the fixation in 0.5 ml 1% paraformadehydrede. Data was acquired on a FACSCalibur system. Isotype-matched controls were used to establish the non-specific staining of samples and to set the fluorescent markers. A total 10,000 events were recorded from each sample. Data were analysed by using CellQuest software (BD Biosciences).

CCc1cc(-c2nnc(S)n2-c2ccc(OC)c3c2ccn3C(C)C)c(O)cc1O [Compound 188, 3-(2,4-Dihydroxy-5-ethyl-phenyl)-4-(1-isopropyl-7-methoxy-indol-4-yl)-5-mercapto-[1,2,4]triazole] was tested. Which IC50 did it give?
Its IC50 is under 3 µM.

How did the IC50 turn out when COc1cccc(-n2c(S)nnc2-c2ccc(O)cc2O)c1 [Compound 21, 3-(2,4-Dihydroxyphenyl)-4-(3-methoxyphenyl)-5-mercapto-triazole] was run?
The IC50 was 10 to 100 µM.

COCCOc1ccc(-n2c(S)nnc2-c2ccc(O)cc2O)c2ccccc12 [Compound 2, 3-(2,4-Dihydroxyphenyl)-4-[4-(2-methoxyethoxy)-naphthalen-1-yl]-5-mercapto-triazole] was tested. Which IC50 did it give?
Its IC50 is 3 to 10 µM.

With CCc1cc(-c2nnc(S)n2-c2ccc(OC)c(N(C)C(C)C)c2)c(O)cc1O [Compound 249, 4-(4-(3-(N-isopropyl-N-methylamino)-4-methoxyphenyl)-5-mercapto-4H-1,2,4-triazol-3-yl)-6-ethylbenzene-1,3-diol] as the molecule, how does the IC50 read?
Its IC50 is under 3 µM.

With Cc1cc(-c2nnc(S)n2-c2cccc3ccccc23)c(O)cc1O [Compound 63, 3-(2,4-Dihydroxy-5-methyl-phenyl)-4-(naphthalene-1-yl)-5-mercapto-triazole] as the molecule, how does the IC50 read?
The IC50 was under 3 µM.

How did the IC50 turn out when CCc1cc(-c2n[nH]c(O)c2-c2cccc3ccccc23)c(O)cc1O [Compound 348, 4-(naphthalen-1-yl)-3-(5-ethyl-2,4-dihydroxy-phenyl)-5-hydroxy-2H-pyrazole] was run?
The IC50 was 10 to 100 µM.

How did the IC50 turn out when [O-][n+]1ccc(-c2nnc(S)n2-c2cccc3ccccc23)c(O)c1 [Compound 98, 3-(1-Oxo-3-hydroxy-pyridin-4-yl)-4-(naphthalen-1-yl)-5-mercapto-triazole] was run?
The IC50 was 10 to 100 µM.

Cc1cccc(-n2c(S)nnc2-c2ccc(O)cc2O)c1C [Compound 34, 3-(2,4-Dihydroxyphenyl)-4-(2,3-dimethylphenyl)-5-mercapto-triazole] was tested. Which IC50 did it give?
Its IC50 is 3 to 10 µM.

Which IC50 does the source give for Oc1ccc(-c2nnc(S)n2-c2cccc(-c3ccccc3)c2)c(O)c1 [Compound 181, 3-(2,4-Dihydroxy-phenyl)-4-(biphenyl-3-yl)-5-mercapto-triazole] here?
The IC50 was 10 to 100 µM.

CC(C)(C)c1cc(-n2c(S)nnc2-c2ccc(O)cc2O)cc(C(C)(C)C)c1 [Compound 61, 3-(2,4-Dihydroxy-phenyl)-4-(3,5-di-tert-butylphenyl)-5-mercapto-triazole] was tested. Which IC50 did it give?
The IC50 was 10 to 100 µM.

CCc1cc(-c2nnc(S)n2-c2ccc3[nH]c(C)c(C)c3c2)c(O)cc1O [Compound 185, 3-(2,4-Dihydroxy-5-ethyl-phenyl)-4-(2,3-dimethyl-indol-5-yl)-5-mercapto-triazole] was tested. Which IC50 did it give?
The IC50 was under 3 µM.

How did the IC50 turn out when CCc1cc(-c2nnc(S)n2-c2ccc(OC)c(C(C)(C)C)c2)c(O)cc1O [Compound 186, 3-(2,4-Dihydroxy-5-ethyl-phenyl)-4-(3-t-butyl-4-methoxy-phenyl)-5-mercapto-triazole] was run?
The IC50 was 10 to 100 µM.

Oc1ccc(-c2nnc(S)n2-c2ccc(Cl)c3ccccc23)c(O)c1 [Compound 48, 3-(2,4-Dihydroxyphenyl)-4-(4-chloronaphthalen-1-yl)-5-mercapto-triazole] was tested. Which IC50 did it give?
The IC50 was 3 to 10 µM.

With COCCn1ccc2c(-n3c(S)nnc3-c3ccc(O)cc3O)cccc21 [Compound 96] as the molecule, how does the IC50 read?
Its IC50 is under 3 µM.

CCc1cc(-c2nnc(S)n2-c2ccc(OC)c(N(CC)CC)c2)c(O)cc1O [Compound 247, 4-(4-(3-(diethylamino)-4-methoxyphenyl)-5-mercapto-4H-1,2,4-triazol-3-yl)-6-ethylbenzene-1,3-diol] was tested. Which IC50 did it give?
Its IC50 is under 3 µM.

For CCCOc1ccc2c(-n3c(S)nnc3-c3ccc(O)cc3O)cccc2c1 [Compound 7], which IC50 is on record?
The IC50 was 3 to 10 µM.

For Oc1ccc(-c2nnc(S)n2-c2cccc(Cl)c2Cl)c(O)c1 [Compound 38, 3-(2,4-Dihydroxyphenyl)-4-(2,3-dichlorophenyl)-5-mercapto-triazole], which IC50 is on record?
Its IC50 is 3 to 10 µM.

For CC(C)n1ccc2c(-n3c(S)nnc3-c3ccc(O)cc3O)cccc21 [Compound 88, 3-(2,4-Dihydroxyphenyl)-4-(1-isopropyl-indol-4-yl)-5-mercapto-triazole], which IC50 is on record?
The IC50 was under 3 µM.

Which IC50 does the source give for Oc1ccc(-c2nnc(S)n2-c2cccc3c2OCCO3)c(O)c1 [Compound 14, 3-(2,4-Dihydroxyphenyl)-4-(2,3-dihydro-benzo[1,4]dioxin-5-yl)-5-mercapto-triazole] here?
Its IC50 is 3 to 10 µM.

With CCc1cc(-c2nnc(S)n2-c2ccc(OC)c3ccccc23)c(O)cc1O [Compound 76, 3-(2,4-Dihydroxy-5-ethyl-phenyl)-4-(4-methoxy-naphthalen-1-yl)-5-mercapto-triazole] as the molecule, how does the IC50 read?
The IC50 was under 3 µM.

For OCc1cc(O)c(-c2nnc(S)n2-c2cccc3ccccc23)cc1O [Compound 104, 3-(2,5-Dihydroxy-4-hydroxymethyl-phenyl)-4-(naphthalen-1-yl)-5-mercapto-triazole], which IC50 is on record?
The IC50 was 10 to 100 µM.

CCn1ccc2c(-n3c(S)nnc3-c3ccc(O)cc3O)cccc21 [Compound 13, 3-(2,4-Dihydroxyphenyl)-4-(1-ethyl-indol-4-yl)-5-mercapto-triazole] was tested. Which IC50 did it give?
Its IC50 is under 3 µM.

Oc1ccc(-c2nnc(S)n2-c2cccc3cnccc23)c(O)c1 [Compound 70, 3-(2,4-Dihydroxy-phenyl)-4-(isoquinolin-5-yl)-5-mercapto-triazole] was tested. Which IC50 did it give?
The IC50 was 3 to 10 µM.

How did the IC50 turn out when COc1cccc(-n2c(S)nnc2-c2ccc(O)cc2O)c1OC [Compound 93, 3-(2,4-Dihydroxy-phenyl)-4-(2,3-dimethoxy-phenyl)-5-mercapto-triazole] was run?
The IC50 was 3 to 10 µM.

Which IC50 does the source give for CCCN(c1cc(-n2c(S)nnc2-c2cc(CC)c(O)cc2O)ccc1OC)C(C)C [Compound 248, 4-(4-(3-(N-isopropyl-N-propylamino)-4-methoxyphenyl)-5-mercapto-4H-1,2,4-triazol-3-yl)-6-ethylbenzene-1,3-diol] here?
The IC50 was under 3 µM.

How did the IC50 turn out when CCc1cc(-c2nnc(S)n2-c2cccc3c(OC)cccc23)c(O)cc1O [Compound 8, 3-(2,4-Dihydroxy-5-ethyl-phenyl)-4-(5-methoxy-naphthalen-1-yl)-5-mercapto-triazole] was run?
The IC50 was under 3 µM.

For CCc1cc(-c2nnc(S)n2-c2ccc3c(c2)c(C)c(C)n3C)c(O)cc1O [Compound 103, 3-(2,4-Dihydroxy-5-ethyl-phenyl)-4-(1,2,3-trimethyl-indol-5-yl)-5-mercapto-triazole], which IC50 is on record?
The IC50 was under 3 µM.

Which IC50 does the source give for O=C(O)c1cc(O)c(-c2nnc(S)n2-c2cccc3ccccc23)cc1O [Compound 99, 3-(2,5-Dihydroxy-4-carboxy)-4-(naphthalen-1-yl)-5-mercapto-triazole] here?
Its IC50 is 10 to 100 µM.

For CCc1cc(-c2nnc(S)n2-c2ccc(OC)c(N(C)CC)c2)c(O)cc1O [Compound 250, 4-(4-(3-(N-ethyl-N-methylamino)-4-methoxyphenyl)-5-mercapto-4H-1,2,4-triazol-3-yl)-6-ethylbenzene-1,3-diol], which IC50 is on record?
Its IC50 is under 3 µM.

With Oc1cc(O)c(C2CC2)cc1-c1nnc(S)n1-c1cccc2ccccc12 [Compound 189, 3-(2,4-Dihydroxy-5-cyclopropyl-phenyl)-4-(naphthalene-1-yl)-5-mercapto-triazole] as the molecule, how does the IC50 read?
Its IC50 is under 3 µM.

How did the IC50 turn out when Oc1nc(O)c(-c2nnc(S)n2-c2cccc3ccccc23)cc1F [Compound 62, 3-(2,6-Dihydroxy5-fluoro-pyridin-3-yl) 4-(naphthalen-1-yl)-5-mercapto-triazole] was run?
The IC50 was 10 to 100 µM.

How did the IC50 turn out when Cc1ccc(CO)cc1-n1c(S)nnc1-c1ccc(O)cc1O [Compound 182, 3-(2,4-Dihydroxy-phenyl)-4-(2-methyl-5-hydroxymethyl-phenyl)-5-mercapto-triazole] was run?
Its IC50 is 10 to 100 µM.
